Source: patent USRE48023E1, “Method for treating vascular-related disease” (EYEGENE INC., priority 2006, dated 2020)

Test system: mouse retinal angiogenesis
Test: Mouse model for inducing retinal angiogenesis using oxygen partial pressure, FITC-dextran observation
Assay type: in vivo
Details: for blood leakage (FITC-dextran) / normal angiogenesis (FITC-dextran): administered intraperitoneally after 75% oxygen treatment; for abnormal angiogenesis: treated daily with 1 μg/kg

Substance	blood leakage (FITC-dextran)	normal angiogenesis (FITC-dextran)	abnormal angiogenesis	normal angiogenesis (FITC-dextran) (listed as polypeptide comprising a RAD sequence)
SEQ ID NO: 1: peptide comprising a RGD sequence; sequence not printed in text (RGDFV; Peptide Containing RGD Sequence)	blood leakage is reduced	normal angiogenesis is induced	abnormal angiogenesis was not observed	–
SEQ ID NO: 2: peptide comprising a RGD sequence; sequence not printed in text (GFGRGDSPCA; Peptide Containing RGD Sequence)	blood leakage is reduced	normal angiogenesis is induced	abnormal angiogenesis was not observed	–
SEQ ID NO: 3: polypeptide comprising a sequence RAD, used as the control (RADFV; Peptide Containing RAD Sequence) [reference compound]	–	normal angiogenesis is not induced	–	not also normally formed
echistatin (ECESGPCCRNCKFLKEGTICKRARGDDMDDYCNGLTCDCPRNPHKGPAT; Peptide containing RGD sequence)	blood leakage is reduced	normal angiogenesis is induced	abnormal angiogenesis was not observed	–
kistrin	blood leakage is reduced	normal angiogenesis is induced	abnormal angiogenesis was not observed	–
